Data taken from patent US20150218654A1, “METHODS FOR PREDICTING MULTIPLE MYELOMA TREATMENT RESPONSE” (INSERM (INSTITUT NATIONAL DE LA SANTÉ ET DE LA RE- CHERCHE …, priority 2012, published 2015).
Several values for one entry are separate records, joined by “and”; a condition that tells them apart may be missing. Equal entries are not always repeated.

Test system: primary myeloma cells of patients (CD138+ viable plasma cells)
Assay: Mononuclear cell culture of patients' tumor samples, count of viable CD138+ myeloma cells by flow cytometry
Assay type: cell-based, human
Protocol: Mononuclear cells from tumor samples of 12 patients with MM were cultured for 4 days in the presence of IL-6 (2 ng/ml) with or without graded decitabine concentrations. At day 4 of culture, the cell count and the viability were determined and the percentage of CD138^+ viable plasma cells was determined by flow cytometry. Black color represents patients with high DM Score (N=6) and white represents patients with low DM Score values (N=6).
Mononuclear cells from tumor samples of 14 patients with MM were cultured for 4 days in the presence of IL-6 (2 ng/ml) with or without graded 5-azacitidine concentrations. At day 4 of culture, the count of viable CD138′ MMCs was determined using flow cytometry. The black columns represent the mean±SD of primary myeloma cell counts (expressed as the percentage of the count without adding 5-azcytidine) of the 7 patients with a low DM Score and the white columns that of the 7 patients with a high DM Score.
Mononuclear cells from tumor samples of 12 patients with MM (agreement of the Center for Biological Resources of Montpellier University Hospital (N° DC-2008-417)) were cultured for 4 days at 2×10^5 cells/ml in RPMI 1640 medium, 10% FCS, 2 ng/ml IL-6, with or without graded concentrations of decitabine. In each culture group, viability and cell counts were assayed and MMCs were stained with an anti-CD138-PE mAb (Immunotech, Marseille, France) as previously described (32).
Primary myeloma cells of 14 patients were cultured with or without graded concentrations of 5-azacitidine and MMC cytotoxicity evaluated using anti-CD138-PE mAb (Immunotech, Marseille, France) as described (Jourdan, et al 1998; Mahtouk, et al 2004; Moreaux, et al 2012).

## Nc1ncn([C@H]2C[C@H](O)[C@@H](CO)O2)c(=O)n1 [decitabine, 5-Aza-2′-deoxycytidine]
0.125 μM decitabine, day 4, mean of 6 patients with high DM Score
  Myeloma cell number/culture well, Mean: 54391
0.125 μM decitabine, day 4, mean of 6 patients with low DM Score
  Myeloma cell number/culture well, Mean: 43748
0.125 μM decitabine, day 4, single patients with high DM Score
  Myeloma cell number/culture well: 43320 and 49096 and 40432 and 63536 and 69312 and 60648
0.125 μM decitabine, day 4, single patients with low DM Score
  Myeloma cell number/culture well: 26100 and 51984 and 77976 and 54336 and 1066 and 51024
0.5 μM decitabine, day 4, mean of 6 patients with high DM Score
  Myeloma cell number/culture well, Mean: 38622
0.5 μM decitabine, day 4, mean of 6 patients with low DM Score
  Myeloma cell number/culture well, Mean: 38834
0.5 μM decitabine, day 4, single patients with high DM Score
  Myeloma cell number/culture well: 36738 (2×) and 31086 and 28260 and 56520 and 42390
0.5 μM decitabine, day 4, single patients with low DM Score
  Myeloma cell number/culture well: 27195 and 45216 and 53694 and 51300 and 870 and 54726
2 μM decitabine, day 4, mean of 6 patients with high DM Score
  Myeloma cell number/culture well, Mean: 24024
2 μM decitabine, day 4, mean of 6 patients with low DM Score
  Myeloma cell number/culture well, Mean: 30672
2 μM decitabine, day 4, single patients with high DM Score
  Myeloma cell number/culture well: 20592 (2×) and 22880 and 18304 and 29744 and 32032
2 μM decitabine, day 4, single patients with low DM Score
  Myeloma cell number/culture well: 21028 and 32032 and 22880 and 51230 and 1044 and 55818
8 μM decitabine, day 4, mean of 6 patients with high DM Score
  Myeloma cell number/culture well, Mean: 12808
8 μM decitabine, day 4, mean of 6 patients with low DM Score
  Myeloma cell number/culture well, Mean: 26080
8 μM decitabine, day 4, single patients with high DM Score
  Myeloma cell number/culture well: 5800 and 11600 and 10150 and 18850 and 17400 and 13050
8 μM decitabine, day 4, single patients with low DM Score
  Myeloma cell number/culture well: 18265 and 21750 and 14500 and 53486 and 1039 and 47440
Primary MMCs with DM Score above median (−19.7) versus below median, P<0.01
  fold higher decitabine sensitivity: 2.2 fold
